Where “and” joins values, the source holds several entries; their conditions need not be identical. Equal values may be shown once.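 Five compound concentrations were applied to cells in 96-well plates for 48 hours; endpoints were derived by simple linear interpolation of the resulting dose-response curve. The concentration for 50% growth inhibition is given as GI50.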 Calls of active or inactive are those of the source. No stated cut-off is given here; in the data, active = GI50 up to about 1.1 µM and inactive = higher.
Assays:
Test in all cases: growth of human tumour cells (NCI), 48 h
[1] = system: HOP-92
[2] = system: OVCAR-4
[3] = system: CAKI-1
[4] = system: OVCAR-5
[5] = system: ACHN
[6] = system: OVCAR-3
[7] = system: NCI-H23
[8] = system: KM12
[9] = system: TK-10
[10] = system: HOP-62
[11] = system: SK-OV-3
[12] = system: A498
[13] = system: UACC-62
[14] = system: UACC-257
[15] = system: HCT-116
[16] = system: NCI-H522
[17] = system: NCI/ADR-RES
[18] = system: SR
[19] = system: Hs-578T
[20] = system: MDA-N
[21] = system: SNB-19
[22] = system: SW-620
[23] = system: M14
[24] = system: SF-295
[25] = system: SF-539
[26] = system: Malme-3M
[27] = system: HL-60
[28] = system: UO-31
[29] = system: PC-3
[30] = system: CCRF-CEM
[31] = system: RXF 393
[32] = system: MOLT-4
[33] = system: A549
[34] = system: HCT-15
[35] = system: MDA-MB-231
[36] = system: OVCAR-8
[37] = system: T47D
[38] = system: DU-145
[39] = system: IGROV-1
[40] = system: LOX IMVI
[41] = system: SK-MEL-28
[42] = system: EKVX
[43] = system: K562
[44] = system: COLO 205
[45] = system: SN12C
[46] = system: 786-0
[47] = system: MDA-MB-435
[48] = system: HCC 2998
[49] = system: NCI-H226
[50] = system: SF-268
[51] = system: SK-MEL-5
[52] = system: HT-29
[53] = system: SNB-75
[54] = system: SK-MEL-2
[55] = system: RPMI-8226
[56] = system: NCI-H460
[57] = system: U-251
[58] = system: MCF7

Measured: GI50

CC(=O)OCC1OC(n2c(=S)n(-c3ccccc3)c(=O)c3ccccc32)C(OC(C)=O)C(OC(C)=O)C1OC(C)=O (centres undefined)
inactive: [1] 47.8 µM and 33.6 µM | [2] 55.8 µM and 48.1 µM | [3] 91.8 µM and 83.4 µM

O=[N+]([O-])/C=C/c1cn(CCCCCCCCn2cc(/C=C/[N+](=O)[O-])c3ccccc32)c2ccccc12
> 10 µM: [34]
active: [15] 0.211 µM | [20] 0.61 µM | [47] 0.327 µM | [55] 0.41 µM | [3] 0.689 µM
inactive: [4] > 10 µM | [5] > 10 µM | [6] > 10 µM | [7] > 10 µM | [8] > 10 µM | [9] > 10 µM | [10] > 10 µM | [11] > 10 µM | [12] > 10 µM | [13] > 10 µM | [14] > 10 µM | [16] > 10 µM | [17] > 10 µM | [18] > 10 µM | [19] 6.92 µM | [21] > 10 µM | [22] > 10 µM | [23] > 10 µM | [24] > 10 µM | [25] > 10 µM | [26] > 10 µM | [27] > 10 µM | [28] > 10 µM | [29] > 10 µM | [1] > 10 µM | [30] > 10 µM | [31] > 10 µM | [32] > 10 µM | [33] > 10 µM | [35] > 10 µM | [2] > 10 µM | [36] > 10 µM | [37] > 10 µM | [38] > 10 µM | [39] > 10 µM | [40] 3.51 µM | [41] > 10 µM | [42] > 10 µM | [43] > 10 µM | [44] > 10 µM | [45] > 10 µM | [46] > 10 µM | [48] 7.59 µM | [49] > 10 µM | [50] > 10 µM | [51] > 10 µM | [52] > 10 µM | [53] > 10 µM | [54] > 10 µM | [56] > 10 µM

COc1ccc(-c2cc(-c3ccccc3)c(C#N)c(=O)n2C2OC(COC(C)=O)C(OC(C)=O)C(OC(C)=O)C2OC(C)=O)cc1 (centres undefined)
inactive: [28] 67.6 µM and 42.4 µM

O=C1CCCc2ccc3c(c21)CC1(Cc2ccccc2C1)C3
inactive: [4] 31 µM | [5] 12.2 µM | [6] 33.5 µM | [7] 36.8 µM | [8] 38.9 µM | [9] 69.5 µM | [10] 39.1 µM | [11] 53.5 µM | [12] 25.6 µM | [13] 26.1 µM | [14] 21.4 µM | [15] 23 µM | [16] 23.9 µM | [17] 50.6 µM | [19] 25.9 µM | [20] 19 µM | [23] 34.6 µM | [24] 24.2 µM | [25] 31.6 µM | [26] 33.2 µM | [28] 50.1 µM | [29] 98.4 µM | [1] 17 µM | [31] 33.3 µM | [33] 34.7 µM | [57] 41.8 µM | [35] 27.5 µM | [2] 17.2 µM | [36] 34.2 µM | [37] 44.2 µM | [58] 57.5 µM | [39] 50.9 µM | [40] 30.6 µM | [42] 7.78 µM | [43] 10.8 µM | [44] 17.2 µM | [45] 26.1 µM | [46] 29.1 µM | [47] 27 µM | [48] 41.5 µM | [49] 13.3 µM | [51] 18.5 µM | [52] 17.5 µM | [53] 1.26 µM | [54] > 100 µM | [55] 16.9 µM
41.7 µM: [34]

CCCCCCCCCCCCCCCCCc1nc(C#N)c(N)o1
inactive: [4] 73.1 µM | [5] 96.6 µM | [8] 23.5 µM | [9] > 100 µM | [10] > 100 µM | [11] > 100 µM | [12] > 100 µM | [13] > 100 µM | [14] > 100 µM | [15] > 100 µM | [18] 7.89 µM | [19] 20.8 µM | [20] > 100 µM | [21] 73.8 µM | [22] > 100 µM | [23] 98.6 µM | [27] 3.53 µM | [29] 24.4 µM | [1] 74.5 µM | [30] 2.28 µM | [32] 5.06 µM | [33] > 100 µM | [57] 44.2 µM | [35] 21 µM | [36] 13.8 µM | [38] > 100 µM | [58] > 100 µM | [39] 12.1 µM | [40] 54.3 µM | [41] > 100 µM | [42] > 100 µM | [43] 22.7 µM | [45] 61 µM | [46] 23.3 µM | [47] > 100 µM | [50] 33.2 µM | [51] > 100 µM | [52] > 100 µM | [53] 21.4 µM | [54] > 100 µM | [55] 5.27 µM | [3] 19.9 µM
86.9 µM: [34]

Nc1nc(N)c2ncn(-c3ccccc3)c2n1
inactive: [8] 26.4 µM | [9] 54.2 µM | [10] > 100 µM | [12] 60.4 µM | [13] 41.5 µM | [14] > 100 µM | [19] 71 µM | [20] > 100 µM | [21] > 100 µM | [22] > 100 µM | [26] > 100 µM | [28] 36.9 µM | [30] 24.9 µM | [31] 44.3 µM | [32] 38.7 µM | [33] 43.6 µM | [57] > 100 µM | [35] 64.9 µM | [58] 69.7 µM | [39] 47.2 µM | [40] > 100 µM | [44] > 100 µM | [45] 93.3 µM | [46] > 100 µM | [48] 56.1 µM | [49] > 100 µM | [51] > 100 µM | [54] 73.3 µM | [55] > 100 µM | [3] 66.2 µM

CC(=O)OC(C)(C)/C(C)=C/C(=O)O[C@H]1C(=O)O[C@@H]2C[C@H]3[C@H](C)C(=O)C(O[C@@H]4O[C@H](CO)[C@@H](O)[C@H](O)[C@H]4O)=C[C@]3(C)[C@H]3[C@@H](O)[C@H](O)[C@@]4(C(=O)O)OC[C@]32[C@@H]14 [Bruceoside-F]
inactive: [57] 87.3 µM | [40] 81.3 µM | [41] 79.3 µM | [51] > 10 µM

— ChEMBL document CHEMBL1201862, “PubChem BioAssay data set” (2004)
